Where “and” joins values, the source holds several entries; their conditions need not be identical. Equal entries are not always repeated.
Legend:
[1] = tested on: dispersed mouse islet cells; test: EphA4 shedding into culture medium (EphA4 ELISA); type: cell-based; conditions: Supplemental Figure 4D
Description: Pancreata of nondiabetic C57BL/6J mice were digested using collagenase P (Roche Diagnostics, catalog 11213873001), and islets were manually picked up using a stereomicroscope (ZEISS Stemi 305). […] Isolated mouse islets or provided human islets were dispersed as described ([28]). Briefly, 100–120 islets were washed 2 times using modified HBSS, then dispersed in 600 μL Accutase (Innovative Cell Technologies, catalog AT-104) by gently pipetting up and down for 7 minutes at 37°C. […] Following refreshing of KRBH, cells were dispensed in 8 microfuge tubes (2,000 cells/tube) and treated with WCDD301, preclustered Ephrin-A5 Fc, or preclustered Fc in the presence or absence of the competitive inhibitor of EphA4 receptor, rhyncophylline ([60]) (MilliporeSigma, catalog SML2345). In the presence or absence of these effectors, secretion assay was performed sequentially as shown in Supplemental Table 5. […] Preclustering of Ephrin-A5 Fc was done by mixing Ephrin-A5 Fc or Fc alone (BioLegend, catalog 790102) with anti-Fc antibody (Invitrogen, catalog A16086) (1:10 molar ratio) 20 minutes before treatment ([62]). […] Shedding of cleaved EphA4 was measured from the cell culture medium. Experiments were performed by dispersion of 200 islets, and EphA4 levels in media were measured by EphA4 ELISA (ABclonal, catalog RK06572).

[2] = Microsomal stability assay, human liver microsomes; type: in vitro ADME; conditions: for Remaining in hepatic microsomes (100 at 0 min): human microsomes, Figure 5C
Description: (§1) A total of 445 μL of the working solution was transferred into prewarmed incubation plates for treated (T60) and control (NCF60) measurements. After preincubation (10 minutes at 37°C with constant shaking), 54 μL was transferred to the blank plate, followed by 6 μL of NADPH and 180 μL quenching solution. In parallel, 5 μL of WCDD301 (100 μM) was added into incubation plates (T60 and NCF60) containing microsomes and mixed thoroughly (3 times). For the NCF60 plate, 50 μL of buffer was added, mixed (thoroughly, 3 times), shaken, and incubated at 37°C for 60 minutes. In the quenching plate T0, quenching solution (180 μL) and NADPH cofactor (6 μL) were added. For T60 plate, 54 μL of the mixture was placed into the quenching plate (for T0 point), followed by adding 44 μL NADPH cofactor with shaking incubation at 37°C for 60 minutes. Quenching solution (180 μL) was added to quenching plates at 5, 15, 30, 45, and 60 minutes, and 60 μL of sample was transferred from T60 plate per time point to the quenching plates. For the NCF60 plates, 60 μL sample from the NCF60 incubation plate was transferred to the quenching plate (containing quenching solution) at the 60-minute time point. After plates were shaken for 10 minutes and centrifuged (1,750g, 20 minutes at 4°C), 80 μL of the supernatant was transferred into 240 μL HPLC water for LC-MS/MS analysis. The following first-order kinetic equation was used to calculate half-life (T1/2): [drawing 3]; when
(§2) Then, intrinsic clearance [CLint (microsomal; mic)] and hepatic clearance [CLint (liver)] were predicted using the following equations ([66]): […]

[3] = Microsomal stability assay, CD-1 mouse liver microsomes; type: in vitro ADME; conditions: for Remaining in hepatic microsomes (100 at 0 min): mouse microsomes, Figure 5D
Description: as §1, §2

[4] = tested on: human dispersed islet cells; test: Immunofluorescence: F-actin intensity in glucagon+ human dispersed islet cells; type: cell-based;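 on F-actin intensity: ImageJ intensity within ROI drawn around each glucagon+ cell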
Description: Coverslips were treated with WCDD301, preclustered Ephrin-A5 Fc, or preclustered Fc in the following sequential order: KRBH (11 mM glucose, 30 minutes), KRBH (1 mM glucose, 60 minutes), KRBH (1 mM glucose, 30 minutes), and KRBH (11 mM glucose, 60 minutes). After treatment, coverslips were washed once in PBS, fixed in 2% paraformaldehyde in PBS (30 minutes), and again washed in PBS. […] Following wash in PBS, coverslips were incubated in a mixture of Alexa Fluor 555 Phalloidin (Cell Signaling Technology, catalog 8953) and secondary antibodies (goat anti-rabbit Alexa Fluor 488, catalog A-21094, 1:1,000, Molecular Probes; and goat anti-mouse Alexa Fluor 633, catalog A21052, 1:1,000, Life Technologies) for 1 hour at RT. Both primary and secondary antibodies were diluted in blocking buffer containing 0.05% Tween 20. Coverslips were washed using PBS and counterstained by using DAPI (1:1,000) for 10 minutes. Following 2 washes in PBS, coverslips were mounted on glass slides using ProLong Glass Antifade Mountant (Invitrogen, catalog P36980). Images were captured using the Zeiss LSM880 microscope with a Plan-Apochromat 63× 1.4 NA objective lens by setting dual-band dichroic/filter for 405, 488, 561, and 633 nm laser excitation. For each slide, 25–30 fields of view were scanned, and in each field of view, 3–5 cells were imaged. […] Values of intensity were compared among groups using 1-way ANOVA, α = 0.05.

For `CC(=O)OCC(N)(COC(C)=O)COC(C)=O` [WCDD301, 2-(acetoxymethyl)-2-aminopropane-1,3-diyl diacetate], the “Shedding of EphA4 into the cell culture medium” value [1] was “reduced shedding of EphA4 into the cell culture medium”, the “Microsomal stability in human versus mouse preparation” value ([2]; human higher than mouse) was over 1.5 fold and the “Remaining in hepatic microsomes (100 at 0 min)” value (shortened to “Remaining in hepatic microsomes”) ([2]; 5 min) was 86.1. For the same molecule, the “Remaining in hepatic microsomes” value ([2]; 15 min) was 78, the “Remaining in hepatic microsomes” value ([2]; 30 min) was 77.8 and the “Remaining in hepatic microsomes” value ([2]; 45 min) was 77.5. The “Remaining in hepatic microsomes” value ([2]; 60 min) was 72.4, the half-life at 1 µM ([2]; human, liver microsomes) was over 2.42 h and the microsomal CLint at 1 µM ([2]; human, liver microsomes, read-out: Intrinsic microsomal clearance) was under 9.6 µL/min/mg. The Hepatic clearance ([2]; human, predicted from microsomal data) was under 8.6 mL/min/kg, the half-life at 1 µM ([3]; CD-1, mouse, liver microsomes) was 1.56 h and the microsomal CLint at 1 µM ([3]; CD-1, mouse, liver microsomes, read-out: Intrinsic microsomal clearance) was 14.8 µL/min/mg. The “Remaining in hepatic microsomes” value ([3]; 5 min) was 95.6, the “Remaining in hepatic microsomes” value ([3]; 15 min) was 86.5 and the “Remaining in hepatic microsomes” value ([3]; 30 min) was 79.8. The “Remaining in hepatic microsomes” value ([3]; 45 min) was 69.6, the “Remaining in hepatic microsomes” value ([3]; 60 min) was 64.2 and the Hepatic clearance ([3]; mouse, predicted from microsomal data) was 58.7 mL/min/kg. The F-actin intensity ([4]; human cells, individual values, Figure 3E) was 9.0 and 7.2 and 6.5 and 10.4 and 8.2 and 4.2 and 10.3 and 9.6 and 6.8 and the “Effect on intracellular F-actin” value ([4]; α cells, human donors) was “increased intracellular F-actin density”.
